How the values were obtained:
[1] = target: T1, Aldo-keto reductase family 1 member B1 (Homo sapiens, UniProt P15121); test: Inhibition of human AR
[2] = target: Aldo-keto reductase family 1 member B10 (Homo sapiens, UniProt O60218); test: Inhibition of wild-type N-terminal 6-His tagged AKR1B10 (unknown origin) expressed in Escherichia coli BL21(DE3) assessed as pyridine-3-aldehyde reduction by spectrophotometry
[3] = target: T1, Aldo-keto reductase family 1 member B1; test: Inhibition of human AR by fluorescence assay

Sequence of Aldo-keto reductase family 1 member B10 (O60218 whole entry): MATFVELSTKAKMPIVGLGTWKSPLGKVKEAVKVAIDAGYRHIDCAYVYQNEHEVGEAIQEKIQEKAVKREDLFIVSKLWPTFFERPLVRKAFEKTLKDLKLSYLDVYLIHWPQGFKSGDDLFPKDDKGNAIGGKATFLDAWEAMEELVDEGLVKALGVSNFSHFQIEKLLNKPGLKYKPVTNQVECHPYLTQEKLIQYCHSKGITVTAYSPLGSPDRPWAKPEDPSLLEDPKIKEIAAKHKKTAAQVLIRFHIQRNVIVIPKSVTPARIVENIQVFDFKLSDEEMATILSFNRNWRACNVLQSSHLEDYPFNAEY

Row | SMILES | IC50 [1] | IC50 [2] | IC50 [3]
1 | CC(=O)Oc1ccccc1C(=O)Nc1ncc([N+](=O)[O-])s1 [NITAZOXANIDE] | 8220 nM | – | –
2 | O=C(O)Cc1ccccc1Nc1c(Cl)cccc1Cl [DICLOFENAC] | – | 1900 nM | –
3 | O=C(O)c1ccccc1Nc1cccc(C(F)(F)F)c1 [FLUFENAMIC ACID] | – | 760 nM | –
4 | Cc1cccc(Nc2ccccc2C(=O)O)c1C [MEFENAMIC ACID] | – | 1600 nM | 77000 nM

From ChEMBL document CHEMBL3414556, “Targeting aldose reductase for the treatment of diabetes complications and inflammatory diseases: new insights and future directions” (J Med Chem, 2015)
